Measured values taken from PubChem BioAssay (NCI).
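Step 1: Grow cells in 96-well plates. Step 2: Expose to compound for 48 hours at 5 concentrations. Step 3: Interpolate endpoints linearly; if unreached, use highest concentration. GI50 = concentration required for 50% inhibition of growth. TGI: concentration producing complete growth inhibition.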

Columns and labels:
Assay in all cases: inhibition of tumour cell growth, NCI panel, 48 h
OVCAR-5 ovarian = system: OVCAR-5 ovarian
NCI-H23 lung = system: NCI-H23 lung
MALME-3M melanoma = system: MALME-3M melanoma
UACC-257 melanoma = system: UACC-257 melanoma
RPMI-8226 leukemia = system: RPMI-8226 leukemia
U251 CNS = system: U251 CNS
SK-MEL-5 melanoma = system: SK-MEL-5 melanoma
SNB-75 CNS = system: SNB-75 CNS
DU-145 prostate = system: DU-145 prostate
T-47D breast = system: T-47D breast

Row | SMILES | TGI (OVCAR-5 ovarian) [µM] | TGI (NCI-H23 lung) [µM] | TGI (MALME-3M melanoma) [µM] | TGI (UACC-257 melanoma) [µM] | TGI (RPMI-8226 leukemia) [µM] | TGI (U251 CNS) [µM] | TGI (SK-MEL-5 melanoma) [µM] | TGI (SNB-75 CNS) [µM] | TGI (DU-145 prostate) [µM] | TGI (T-47D breast) [µM] | GI50 (DU-145 prostate) [µM] | GI50 (OVCAR-5 ovarian) [µM] | GI50 (NCI-H23 lung) [µM] | GI50 (T-47D breast) [µM] | GI50 (UACC-257 melanoma) [µM] | GI50 (SK-MEL-5 melanoma) [µM] | GI50 (RPMI-8226 leukemia) [µM] | GI50 (U251 CNS) [µM] | GI50 (SNB-75 CNS) [µM] | GI50 (MALME-3M melanoma) [µM]
1 | O=c1cccccc1NCCNc1cccccc1=O | > 100 | > 100 | 47.9 | > 100 | > 100 | > 100 |  |  |  |  |  |  |  |  |  |  |  |  |  | 
2 | O=C1C2=C(c3ccccc31)C(c1ccc(Cl)cc1)NC(=S)N2 (configuration not stated) | > 100 | 40.5 | 79.4 | > 100 | 52.8 | 33.6 | > 100 | 34 |  |  |  |  |  |  |  |  |  |  |  | 
3 | CC(=O)Nc1cc2cc(NS(=O)(=O)c3cc(C(F)(F)F)cc(C(F)(F)F)c3)ccc2oc1=O | > 100 | > 100 | > 100 | > 100 | > 100 | > 100 | > 100 |  | > 100 | > 100 |  |  |  |  |  |  |  |  |  | 
4 | CC(C)=CCC/C(C)=C/[C@H]1OC(=O)CC12C[C@H](O)C=CC2=O (some centres not stated) | 2.54 | 1.04 |  | 2.82 | 0.594 | 2.03 | 3.17 | 4.2 | 2.18 | 0.692 | 0.529 | 1.14 | 0.308 | 0.194 | 1.2 | 1.35 | 0.235 | 0.752 | 1.64 | 
5 | CNC(C)Cc1ccc(O)cc1 (configuration not stated) | > 100 | > 100 | > 100 | > 100 | > 100 | > 100 | > 100 | > 100 |  |  |  |  |  |  |  |  |  |  |  | 
6 | CC(=O)OCC(OC(C)=O)C(OC(C)=O)C(OC(C)=O)C(=O)CNn1c(-c2ccccc2Cl)nc2ccc(Br)cc2c1=O (configuration not stated) | > 100 | > 100 | > 100 | > 100 | > 100 | > 100 | > 100 | > 100 |  |  |  |  |  |  |  |  |  |  |  | 
7 | CC(=O)O[C@H](C[C@H](C(C)C)N(C)C(=O)[C@@H](NC(=O)[C@H]1CCCCN1C)C(C)(C)C)c1nc(C(=O)N[C@@H](Cc2ccccc2)C[C@H](C)C(=O)O)cs1 | > 25 | > 25 | > 25 |  | > 25 | > 25 | 0.0057 | > 25 |  |  | < 0.0025 | < 0.0025 | < 0.0025 |  |  | < 0.0025 | < 0.0025 | < 0.0025 | < 0.0025 | < 0.0025
8 | [N-]=[N+]=Nc1c(Br)c(=O)[nH]c(=O)n1COCCO | > 100 | > 100 | > 100 | > 100 |  | > 100 | > 100 | > 100 |  |  |  |  |  |  |  |  |  |  |  | 
9 | COc1cc(C(=O)C/C(CCC(=O)Nc2ccc(Cl)cc2Cl)=N/Nc2nnc(C)n2N)ccc1O | > 100 | > 100 | > 100 | > 100 | > 100 | > 100 | > 100 | > 100 |  |  |  |  |  |  |  |  |  |  |  | 
10 | S=C(Nc1ccccc1)N1CCn2c1nsc2=Nc1ccccc1 | > 100 | > 100 |  | > 100 | > 100 | > 100 | > 100 | > 100 | > 100 | > 100 | > 100 | > 100 | 41.1 | > 100 | > 100 | 37.8 | 40.9 | 33 | 66.5 | 
11 | COC(=O)C1=C(c2cc(OC)c(OC)c(OC)c2)O[C@H](c2ccc3c(c2)OCO3)[C@H]1COC(C)=O | > 100 | 57.1 | > 100 | > 100 | > 100 | 63.5 | 29.8 | > 100 |  |  |  |  |  |  |  |  |  |  |  | 
12 | O=C(O)Cc1cc(=O)[nH]c2c1C(=O)CCC2 | > 100 | > 100 | > 100 | > 100 | > 100 | > 100 | > 100 |  |  |  |  |  |  |  |  |  |  |  |  | 
13 | COC(=O)/C(=N/O)C(C(=O)OC)C(=O)C(=O)Nc1c(Cl)cc(C)cc1S(=O)(=O)O (configuration not stated) | > 100 | > 100 | > 100 | > 100 | 53.3 | > 100 | > 100 | > 100 |  |  |  |  |  |  |  |  |  |  |  | 
14 | O=C(O)c1oc2cccc3c2c1CCC3 | > 100 | > 100 | > 100 | > 100 | > 100 | > 100 | > 100 | > 100 |  |  |  |  |  |  |  |  |  |  |  | 
15 | CCCCN(CCCC)C(=O)C(=O)CC(=O)/C=C/c1ccccc1 | > 100 | > 100 | > 100 | > 100 | > 100 | > 100 | > 100 | > 100 |  |  |  |  |  |  |  |  |  |  |  | 
16 | COC(=O)c1nn(C(=N)c2ccc(Cl)cc2)c2c1CCCCC2 | > 100 | > 100 | > 100 | > 100 | > 100 | > 100 | > 100 | > 100 |  |  |  |  |  |  |  |  |  |  |  | 
17 | Cc1ccc(S(=O)(=O)c2ccsc2N)cc1 | > 100 | > 100 | > 100 | > 100 | > 100 | > 100 | > 100 |  | > 100 | > 100 | > 100 | > 100 | > 100 | > 100 | > 100 | 66 | 95.4 | > 100 |  | > 100
18 | O=C1NC(O)CCN1C1CC(O)C(CO)O1 (configuration not stated) | > 100 | > 100 | > 100 | > 100 | > 100 | > 100 | > 100 |  | > 100 | > 100 |  |  |  |  |  |  |  |  |  | 
19 | C(#Cc1ccccc1C#Cc1ccccn1)c1ccccn1 | 40.5 | 46.4 | 21 | 39.8 |  | 25.3 | 30.9 | 42.6 | 38 | 46.3 | 19.8 | 17.2 | 19 | 19.4 | 19.3 | 15.5 |  | 11.5 | 18.5 | 7.74
20 | N[C@H](C(=O)O)[C@@H](Cl)CC(=O)O | > 100 | > 100 | > 100 | > 100 | > 100 | > 100 | > 100 | > 100 |  |  |  |  |  |  |  |  |  |  |  | 
21 | CCOC(=O)NC(=O)c1cn(C2OC(CO)C(O)C2O)c(=O)[nH]c1=O (configuration not stated) | > 100 |  | > 100 | > 100 | > 100 | > 100 | > 100 | > 100 |  |  |  |  |  |  |  |  |  |  |  | 
